Results on four compounds are retold here after PubChem BioAssay (NCI).

Among the test systems are HOP-92 NSCLC; BT-549 breast; NCI-H23 lung; UACC-257 melanoma; NCI-H226 lung; CAKI-1 renal; SNB-75 CNS; HT29 colon; SK-MEL-2 melanoma; A498 renal; KM12 colon; TK-10 renal; SK-MEL-5 melanoma; UACC-62 melanoma; NCI-H522 lung; EKVX NSCLC; HCT-116 colon; MOLT-4 leukemia; DU-145 prostate; SN12C renal; NCI-H460 lung; COLO 205 colon; K-562 leukemia; PC-3 prostate; SNB-19 CNS; OVCAR-8 ovarian; A549 NSCLC; HOP-62 NSCLC; NCI/ADR-RES ovarian; MDA-MB-435; SF-539 CNS; M14 melanoma; MALME-3M melanoma; OVCAR-5 ovarian; SR leukemia; 786-0 renal; MCF7 breast; U251 CNS; SF-295 CNS; MDA-MB-231 breast; HCC-2998 colon; SK-MEL-28 melanoma; LOX IMVI melanoma; HCT-15 colon; SW-620 colon; OVCAR-4 ovarian; ACHN renal; IGROV1 ovarian; RPMI-8226 leukemia; HL-60(TB) leukemia; CCRF-CEM leukemia.

What all share (assay): inhibition of tumour cell growth, NCI panel, 48 h

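Tested at 5 concentrations; 48 h exposure; 96-well plates; endpoints linearly interpolated, else capped at highest concentration. GI50 marks 50% less growth. TGI: total growth inhibition.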 *1 amine or outer side, *2 acyl side, *3 side chain or, on linkers, in order; H or OH if unused. Where a SMILES comes first, the peptide text is derived from it. Bridges are numbered along the chain shown (N, C = ends). [ ]: non-standard residue; d: D form. The star is where a group is joined. ξ: configuration not given here. γ4hArg(2R,3R-(OH)2) = N=C(N)NCCC[C@H](N[*:1])[C@@H](O)[C@@H](O)C(=O)[*:2]; Gln(3S,4R-Me2) = C[C@H]([C@H](N)C(=O)O)[C@@H](C)C(N)=O; X43 = CC(C)C[C@H](C)[C@@H](O)[C@@H](C)C(=O)*; X44 = COC(c1ccc(O)cc1)C(N[*:1])C(=O)[*:2]; NMeQ = CN[C@@H](CCC(N)=O)C(=O)O; Thr(3ξ) = CC(O)[C@H](N)C(=O)O; NMeA = CN[C@@H](C)C(=O)O Where only a bound is given, the exact number is not on record here.

With `COC(c1ccc(O)cc1)C1NC(=O)[C@H](CCC(N)=O)N(C)C(=O)[C@H](CC(C)C)NC(=O)[C@@H](CCCN=C(N)N)NC(=O)[C@H](C(C)O)NC(=O)[C@@H](NC(=O)[C@@H](NC(=O)[C@H](O)[C@H](O)[C@H](CCCN=C(N)N)NC(=O)[C@H](C)NC(=O)[C@H](C)[C@H](O)[C@@H](C)CC(C)C)[C@@H](C)[C@@H](C)C(N)=O)[C@@H](C)OC(=O)[C@H](C)N(C)C1=O` (stereo partly drawn) (X43-A[γ4hArg(2R,3R-(OH)2)][Gln(3S,4R-Me2)]T[Thr(3ξ)][dR]L[NMeQ][X44][NMeA]; ester 4-C), the TGI is 0.614 µM in the assay on HOP-92 NSCLC; 0.737 µM in the assay on BT-549 breast; 0.201 µM in the assay with NCI-H23 lung; 0.308 µM in the assay with UACC-257 melanoma; 0.912 µM in the assay on NCI-H226 lung.

Turning to `C=C(C)[C@@H]1CC[C@]2(C(=O)N[C@H](CO)Cc3ccccc3)CC[C@]3(C)[C@H](CC[C@@H]4[C@@]5(C)CCCNC(C)(C)[C@@H]5CC[C@]43C)[C@@H]12`, the GI50 is 1.49 µM with CAKI-1 renal; 1.42 µM in the assay with HOP-92 NSCLC; 1.43 µM in the assay on SNB-75 CNS; 0.24 µM in the assay with HT29 colon; 1.72 µM in the assay on SK-MEL-2 melanoma; 1.49 µM with A498 renal. Also, the GI50 was 1.47 µM with KM12 colon; 1.61 µM with TK-10 renal; 1.67 µM in the assay with SK-MEL-5 melanoma; 1.76 µM in the assay with UACC-62 melanoma; 1.78 µM with UACC-257 melanoma; 1.75 µM in the assay on NCI-H522 lung. Moreover, the TGI in the assay with CAKI-1 renal is 2.89 µM; in the assay on HOP-92 NSCLC, 3.02 µM; in the assay with SNB-75 CNS, 2.87 µM; in the assay on HT29 colon, 0.539 µM; with SK-MEL-2 melanoma it was 3.18 µM; with A498 renal, 2.94 µM. Also, the TGI with KM12 colon came out at 2.91 µM; in the assay on TK-10 renal it was 3.08 µM; in the assay on SK-MEL-5 melanoma, 3.07 µM; with UACC-62 melanoma it was 3.39 µM; in the assay with UACC-257 melanoma, 3.34 µM; in the assay on NCI-H522 lung, 3.35 µM.

For the compound `CC1NC(=O)C2Cc3ccc(O)c(c3)Oc3ccc(cc3)C(O)C(C(=O)N2C)N(C)C(=O)C(C)NC(=O)C(Cc2ccc(O)cc2)N(C)C(=O)C(C)NC1=O` (configuration not stated), the TGI with HOP-92 NSCLC, with BT-549 breast, in the assay on NCI-H23 lung and in the assay with UACC-257 melanoma was over 100 µM in each case.

Regarding `O=c1cc(N2CCCC2)[nH]c(=O)n1Cc1ccccc1`, the TGI in the assay on EKVX NSCLC, with HCT-116 colon, with MOLT-4 leukemia, with DU-145 prostate, in the assay on SN12C renal and in the assay with NCI-H460 lung was over 100 µM in each case. For the same compound, the TGI with COLO 205 colon, in the assay with K-562 leukemia, in the assay with PC-3 prostate, in the assay on SNB-19 CNS, in the assay with OVCAR-8 ovarian and in the assay on A549 NSCLC was over 100 µM in each case. The TGI with HOP-62 NSCLC, in the assay with CAKI-1 renal, with NCI/ADR-RES ovarian, in the assay with MDA-MB-435, with SF-539 CNS and with M14 melanoma was over 100 µM throughout. Moreover, the TGI with MALME-3M melanoma, with OVCAR-5 ovarian, with SR leukemia, in the assay with 786-0 renal, in the assay on HOP-92 NSCLC and in the assay on BT-549 breast was over 100 µM in each case. The TGI in the assay with NCI-H23 lung, in the assay on SNB-75 CNS, with HT29 colon, in the assay with SK-MEL-2 melanoma, in the assay with MCF7 breast and in the assay on U251 CNS was over 100 µM in each case. Moreover, the TGI with SF-295 CNS, in the assay with MDA-MB-231 breast, in the assay with HCC-2998 colon, in the assay on KM12 colon, in the assay with SK-MEL-28 melanoma and with LOX IMVI melanoma was over 100 µM throughout. Besides, the TGI with TK-10 renal, in the assay with SK-MEL-5 melanoma, in the assay with UACC-257 melanoma, in the assay with HCT-15 colon, in the assay on SW-620 colon and in the assay with OVCAR-4 ovarian was over 100 µM in each case. For the same compound, the TGI in the assay with ACHN renal, with IGROV1 ovarian, in the assay on RPMI-8226 leukemia, with HL-60(TB) leukemia, in the assay with NCI-H522 lung and in the assay on NCI-H226 lung was over 100 µM throughout. The same compound registered a TGI in the assay on CCRF-CEM leukemia of over 100 µM.
